Measurements as given in US4761414A, “Substituted 1H-pyrimido[1,2-a-]-pyrido[3,4-e]pyrazine 6 oxides” (G. D. Searle & Co., priority 1986, dated 1988).
≈ marks a conversion by molar mass, not a printed value.

What was measured:
Format in all cases: cell-based
B. fragilis NCTC 9343 = test: MIC/MBC against Bacteroides fragilis strain B; conditions: for MBC: NCTC9343, 99.9% reduction in viable count; for MIC: NCTC9343, 48 h, 48 hours, 37° C., anaerobic
Procedure: (§1) The screening panel utilized in this Example consisted of 5 strains of Bacteroides fragilis. All assays were carried out in 96-well microtitre plates. If an isolate was obtained from either a culture collection or clinical source, the isolate was immediately inoculated into Wilkens-Chalgren broth (Oxoid) and incubated at 37° C. in an anaerobic chamber in an atmosphere of 85% nitrogen, 10% carbon dioxide, and 5% hydrogen for 48 hours. At the end of this time, the viable count was about 10^12 organisms/ml broth. A 1 ml aliquot of each culture was placed in an ampoule and quick frozen in acetone-dry ice mixture and stored in liquid nitrogen. When an inoculum was utilized in an assay, one of the ampoules was thawed and diluted with fresh broth to yield a suspension having a count of 5×10^5 organisms/ml. A 100 μl aliquot of this suspension was inoculated into each well of the microtitre plate. A 2 mg sample of the test compound was dissolved in 0.2 ml of a suitable solvent such as dimethylsulfoxide, polyethylene glycol 200 or methanol. […] After addition of the test solution the final inoculum level was 10^5 cells/ml. The plates were incubated for 48 hours at 37° C. in the anaerobic chamber. The Minimum Inhibitory Concentration (MIC) was read visually. The MIC is defined as the lowest concentration at which there is no detectable growth. The Minimum Bactericidal Concentration (MBC) was determined by taking 50 μl aliquot from each well and placing it in fresh medium. […] The strains of Bacteroides fragilis utilized in the above procedure are identified by letter in accordance with the following legend: |B B. fragilis NCTC 9343

B. fragilis NCTC 10581 = test: MIC/MBC against Bacteroides fragilis strain A (96-well microtitre plates, anaerobic chamber); conditions: Bacteroides fragilis; for MBC: NCTC10581, 99.9% reduction in viable count; for MIC: NCTC10581, 48 h, 48 hours, 37° C., anaerobic
Procedure: as §1, with “|A” for “|B”, “10581” for “9343”

Peptostreptococcus = test: MIC vs panel of anaerobes; conditions: procedures of Example 40
[1] = tested on: Campylobacter fetus ss. jejuni ATCC 29428; test: MIC vs panel of anaerobes; conditions: ATCC29428, procedures of Example 40
[2] = tested on: Clostridium perfringens NCTC 8237; test: microbe, parasite or virus in culture; conditions: procedures of Example 40
[3] = tested on: Bacteroides melanogenicus NCTC 9336; test: MIC vs panel of anaerobes; conditions: NCTC9336, procedures of Example 40
Peptococcous magnus = test: MIC vs panel of anaerobes; conditions: procedures of Example 40
P. anaerobius = test: MIC vs panel of anaerobes; conditions: Peptostreptococcus anaerobius, procedures of Example 40
[4] = tested on: B. melanogenicus ATCC 15032; test: MIC vs panel of anaerobes; conditions: procedures of Example 40
[5] = Clostridium perfringens, NCTC8237, Clostridium perfringens NCTC 8237

SMILES	MBC (B. fragilis NCTC 9343) [µg/mL]	MIC (B. fragilis NCTC 9343) [µg/mL]	MBC (B. fragilis NCTC 10581) [µg/mL]	MIC (B. fragilis NCTC 10581) [µg/mL]	MIC (Peptostreptococcus) [µg/mL]	MIC [1] [µg/mL]	MIC [2, 5] [µg/mL]	MIC [3] [µg/mL]	MIC (Peptococcous magnus) [µg/mL]	MIC (P. anaerobius) [µg/mL]	MIC [4] [µg/mL]	MIC ([2]; Clostridium perfringens NCTC 8237) [µg/mL]
CCCC1(C)CN=C2C(c3ccccc3)=[N+]([O-])c3cnccc3N2C1 (centres unmarked) [Example 27, 2,3-Dihydro-2-methyl-5-phenyl-2-propyl-1H-pyrimido[1,2-a]pyrido[3,4-e]pyrazine 6-oxide]	< 0.8	< 0.8	1.5 (≈ 4.49 µM)	1.5 (≈ 4.49 µM)	–	–	–	–	–	–	–	–
CC1(C)CN=C2C(c3ccc(Cl)cc3)=[N+]([O-])c3cnccc3N2C1 [Example 17, 2,3-Dihydro-5-(4-chlorophenyl)-2,2-dimethyl-1H-pyrimido[1,2-a]pyrido[3,4-e]pyrazine 6-oxide]	1.5 (≈ 4.4 µM)	1.5 (≈ 4.4 µM)	< 0.8	< 0.8	> 100	100 (≈ 293 µM)	6.2 (≈ 18.2 µM)	> 100	–	–	–	–
CC1(C)CN=C2C(c3ccc(F)cc3)=[N+]([O-])c3cnccc3N2C1 [Example 33, 2,3-Dihydro-2,2-dimethyl-5-(4-fluorophenyl)-1H-pyrimido[1,2-a]pyrido[3,4-e]pyrazine 6-oxide]	< 0.8	< 0.8	< 0.8	< 0.8	–	–	–	–	–	–	–	–
[O-][N+]1=C(c2ccccc2)C2=NCC3(CCCCC3)CN2c2ncccc21 [Example 29, Spiro[cyclohexane-1,2'-[2,3]-dihydro-[5]-phenyl-[1H]pyrimido[1,2-a]pyrido[3,2-e]pyrazine [6]-oxide]]	< 0.8	< 0.8	–	–	–	50 (≈ 144 µM)	–	–	< 0.8	< 0.8	100 (≈ 289 µM)	–
CCC1(C)CN=C2C(c3ccccc3)=[N+]([O-])c3cnccc3N2C1 (centres unmarked) [Example 23, 2,3-Dihydro-2-ethyl-2-methyl-5-phenyl-1H-pyrimido[1,2-a]pyrido[3,4-e]pyrazine 6-oxide]	< 0.8	< 0.8	1.5 (≈ 4.68 µM)	1.5 (≈ 4.68 µM)	–	100 (≈ 312 µM)	6.2 (≈ 19.4 µM)	–	–	100 (≈ 312 µM)	> 100	–
CCC1(CC)CN=C2C(c3ccccc3)=[N+]([O-])c3cnccc3N2C1 [Example 25, 2,3-Dihydro-2,2-diethyl-5-phenyl-1H-pyrimido[1,2-a]pyrido[3,4-e]pyrazine 6-oxide]	1.5 (≈ 4.49 µM)	1.5 (≈ 4.49 µM)	3.1 (≈ 9.27 µM)	1.5 (≈ 4.49 µM)	–	100 (≈ 299 µM)	3.1 (≈ 9.27 µM)	–	100 (≈ 299 µM)	100 (≈ 299 µM)	> 100	–
CCC1(CC)CN=C2C(c3ccccc3)=[N+]([O-])c3cccnc3N2C1 [Example 26, 2,3-Dihydro-2,2-diethyl-5-phenyl-1H-pyrimido[1,2-a]pyrido[3,2-e]pyrazine 6-oxide]	1.5 (≈ 4.49 µM)	1.5 (≈ 4.49 µM)	< 0.8	< 0.8	–	50 (≈ 150 µM)	1.5 (≈ 4.49 µM)	–	12.5 (≈ 37.4 µM)	50 (≈ 150 µM)	100 (≈ 299 µM)	–
[O-][N+]1=C(c2ccccc2)C2=NCC3(CCCCC3)CN2c2ccncc21 [Example 30, Spiro[cyclohexane-1,2'-[2,3]-dihydro-[5]-phenyl-[1H]pyrimido[1,2-a]pyrido[3,4-e]pyrazine [6]-oxide]]	1.5 (≈ 4.33 µM)	< 0.8	< 0.8	< 0.8	–	100 (≈ 289 µM)	12.5 (≈ 36.1 µM)	–	–	100 (≈ 289 µM)	> 100	–
COc1ccc(C2=[N+]([O-])c3cnccc3N3CC(C)(C)CN=C23)cc1OC [Example 21]	1.5 (≈ 4.09 µM)	1.5 (≈ 4.09 µM)	< 0.8	< 0.8	–	–	–	–	–	–	–	–
CCC1(C)CN=C2C(c3ccccc3)=[N+]([O-])c3cccnc3N2C1 (centres unmarked) [Example 24, 2,3-Dihydro-2-ethyl-2-methyl-5-phenyl-1H-pyrimido[1,2-a]pyrido[3,2-e]pyrazine 6-oxide]	< 0.8	< 0.8	< 0.8	< 0.8	–	50 (≈ 156 µM)	6.2 (≈ 19.4 µM)	–	–	100 (≈ 312 µM)	100 (≈ 312 µM)	–
CC1CN=C2C(c3ccccc3)=[N+]([O-])c3cnccc3N2C1 (centres unmarked) [Example 34, 2,3-Dihydro-2-methyl-5-phenyl-1H-pyrimido[1,2-a]pyrido[3,4-e]pyrazine 6-oxide]	< 0.8	< 0.8	< 0.8	< 0.8	–	–	–	–	–	–	–	–
Cc1ccc(C2=[N+]([O-])c3cnccc3N3CC(C)(C)CN=C23)cc1 [Example 19, 2,3-Dihydro-2,2-dimethyl-5-(4-methylphenyl)-1H-pyrimido[1,2-a]pyrido[3,4-e]pyrazine 6-oxide]	1.5 (≈ 4.68 µM)	< 0.8	1.5 (≈ 4.68 µM)	1.5 (≈ 4.68 µM)	–	–	1.5 (≈ 4.68 µM)	–	< 0.8	–	–	–
CC1CN=C2C(c3ccccc3)=[N+]([O-])c3cccnc3N2C1 (centres unmarked) [Example 32, 2,3-Dihydro-2-methyl-5-phenyl-1H-pyrimido[1,2-a]pyrido[3,2-e]pyrazine 6-oxide]	1.5 (≈ 5.13 µM)	1.5 (≈ 5.13 µM)	< 0.8	< 0.8	–	–	6.2 (≈ 21.2 µM)	–	< 0.8	–	–	–
CC1(C)CN=C2C(c3ccc(F)cc3)=[N+]([O-])c3cccnc3N2C1 [Example 31, 2,3-Dihydro-2,2-dimethyl-5-(4-fluorophenyl)-1H-pyrimido[1,2-a]pyrido[3,2-e]pyrazine 6-oxide]	< 0.8	< 0.8	< 0.8	< 0.8	–	100 (≈ 308 µM)	12.5 (≈ 38.5 µM)	–	–	100 (≈ 308 µM)	> 100	–
CC1(C)CN=C2C(c3ccc(Cl)cc3)=[N+]([O-])c3cccnc3N2C1 [Example 18, 2,3-Dihydro-5-(4-chlorophenyl)-2,2-dimethyl-1H-pyrimido[1,2-a]pyrido[3,2-e]pyrazine 6-oxide]	< 0.8	< 0.8	< 0.8	< 0.8	25 (≈ 73.4 µM)	–	6.2 (≈ 18.2 µM)	25 (≈ 73.4 µM)	< 0.8	–	–	–
CC1(C)CN=C2C(c3ccccc3)=[N+]([O-])c3cccnc3N2C1 [Example 16, 2,3-Dihydro-2,2-dimethyl-5-phenyl-1H-pyrimido[1,2-a]pyrido[3,2-e]pyrazine 6-oxide]	1.5 (≈ 4.9 µM)	1.5 (≈ 4.9 µM)	3.1 (≈ 10.1 µM)	3.1 (≈ 10.1 µM)	25 (≈ 81.6 µM)	–	–	25 (≈ 81.6 µM)	< 0.8	–	–	12.5 (≈ 40.8 µM)
CC1(C)CN=C2C(c3ccccc3)=[N+]([O-])c3cnccc3N2C1 [Example 15, 2,3-Dihydro-2,2-dimethyl-5-phenyl-1H-pyrimido[1,2-a]pyrido[3,4-e]pyrazine 6-oxide]	< 0.8	< 0.8	< 0.8	< 0.8	100 (≈ 326 µM)	–	12.5 (≈ 40.8 µM)	100 (≈ 326 µM)	< 0.8	–	–	–
CCCC1(C)CN=C2C(c3ccccc3)=[N+]([O-])c3cccnc3N2C1 (centres unmarked) [Example 28, 2,3-Dihydro-2-methyl-5-phenyl-2-propyl-1H-pyrimido[1,2-a]pyrido[3,2-e]pyrazine 6-oxide]	< 0.8	< 0.8	< 0.8	< 0.8	–	–	–	–	–	–	–	–
COc1ccc(C2=[N+]([O-])c3cccnc3N3CC(C)(C)CN=C23)cc1OC [Example 22, 2,3-Dihydro-5-(3,4-dimethoxyphenyl)-2,2-dimethyl-1H-pyrimido[1,2-a]pyrido[3,2-e]pyrazine 6-oxide]	< 0.8	< 0.8	1.5 (≈ 4.09 µM)	1.5 (≈ 4.09 µM)	100 (≈ 273 µM)	50 (≈ 136 µM)	6.2 (≈ 16.9 µM)	> 100	–	–	–	–
